Laboratory results reported in ChEMBL document CHEMBL5331135, “Design, Synthesis, and Evaluation of Glucose Transporter Inhibitor-SN38 Conjugates for Targeting Colorectal Cancer” (J Med Chem, 2023).
Calls of active or inactive are those of the source. The rule behind the calls is not given here.

Tests used:
[1] = Toxicity in AOM/DSS-induced orthotopic CRC BALB/c mouse model assessed as body weight loss at 14 mg/kg, ip administered every other day for 2 weeks in presence of Irinotecan; type: organism-based; details: in vivo, 336 h
[2] = Antitumor activity against AOM/DSS-induced orthotopic CRC BALB/c mouse model assessed as reduction in tumor area at 13 mg/kg, iv administered once every 2 days for 2 weeks by dissecting microscopic analysis relative to control; type: functional, Colorectal cancer cell; design: scale not given: the % may be the effect or the level left
[3] = Toxicity in AOM/DSS-induced orthotopic CRC BALB/c mouse model assessed as lesions in heart at 13 mg/kg, iv administered once every 2 days for 2 weeks by H&E staining based analysis; type: organism-based; details: in vivo, 336 h
HCT-116 [4] = assay: Cytotoxicity against human HCT-116 cells incubated for 48 hrs in presence of SN38 by SRB assay; type: functional, cell-based; details: HCT-116, 48 h
HT-29 [5] = assay: Cytotoxicity against human HT-29 cells incubated for 48 hrs in presence of SN38 by SRB assay; type: functional, cell-based; details: HT-29, 48 h
[6] = Antitumor activity against AOM/DSS-induced orthotopic CRC BALB/c mouse model assessed as reduction in tumor area at 13 mg/kg, iv administered once every 2 days for 2 weeks in presence of SN38 by dissecting microscopic analysis relative to control; type: functional, Colorectal cancer cell; design: scale not given: the % may be the effect or the level left
COLO 205 [7] = assay: Cytotoxicity against human COLO 205 cells incubated for 48 hrs in presence of SN38 by SRB assay; type: functional, cell-based; details: COLO 205, 48 h
COLO 205 [8] = assay: Cytotoxicity against human COLO 205 cells incubated for 48 hrs by SRB assay; type: functional, cell-based; details: COLO 205, 48 h
[9] = Toxicity in AOM/DSS-induced orthotopic CRC BALB/c mouse model assessed as lesions in kidney at 13 mg/kg, iv administered once every 2 days for 2 weeks by H&E staining based analysis; type: organism-based; details: in vivo, 336 h
[10] = Toxicity in AOM/DSS-induced orthotopic CRC BALB/c mouse model assessed as lesions in lung at 13 mg/kg, iv administered once every 2 days for 2 weeks by H&E staining based analysis; type: organism-based; details: in vivo, 336 h
[11] = Toxicity in AOM/DSS-induced orthotopic CRC BALB/c mouse model assessed as lesions in liver at 13 mg/kg, iv administered once every 2 days for 2 weeks by H&E staining based analysis; type: organism-based; details: in vivo, 336 h
[12] = Toxicity in AOM/DSS-induced orthotopic CRC BALB/c mouse model assessed as lesions in stomach at 13 mg/kg, iv administered once every 2 days for 2 weeks by H&E staining based analysis; type: organism-based; details: in vivo, 336 h
[13] = Toxicity in AOM/DSS-induced orthotopic CRC BALB/c mouse model assessed as lesions in spleen at 13 mg/kg, iv administered once every 2 days for 2 weeks by H&E staining based analysis; type: organism-based; details: in vivo, 336 h
[14] = Toxicity in AOM/DSS-induced orthotopic CRC BALB/c mouse model assessed as body weight loss at 13 mg/kg, iv administered once every 2 days for 2 weeks; type: organism-based; details: in vivo, 336 h
HT-29 [15] = assay: Cytotoxicity against human HT-29 cells incubated for 48 hrs by SRB assay; type: functional, cell-based; details: HT-29, 48 h
HCT-116 [16] = assay: Cytotoxicity against human HCT-116 cells incubated for 48 hrs by SRB assay; type: functional, cell-based; details: HCT-116, 48 h
[17] = Stability in human plasma assessed as half life by RP-HPLC analysis; type: ADME, cell-free
[18] = Stability in human plasma assessed as formation of carboxylate product measured for 72 hrs by RP-HPLC analysis; type: ADME, cell-free
[19] = Toxicity in AOM/DSS-induced orthotopic CRC BALB/c mouse model assessed as body weight loss at 40 mg/kg, iv administered once every 2 days for 2 weeks; type: organism-based; details: in vivo, 336 h
[20] = Toxicity in AOM/DSS-induced orthotopic CRC BALB/c mouse model assessed as lesions in stomach at 20 to 40 mg/kg, iv administered once every 2 days for 2 weeks by H&E staining based analysis; type: organism-based; details: in vivo, 336 h, dose 20-40 mg/kg
[21] = Toxicity in AOM/DSS-induced orthotopic CRC BALB/c mouse model assessed as lesions in heart at 20 to 40 mg/kg, iv administered once every 2 days for 2 weeks by H&E staining based analysis; type: organism-based; details: in vivo, 336 h, dose 20-40 mg/kg
[22] = Antitumor activity against AOM/DSS-induced orthotopic CRC BALB/c mouse model assessed as tumor growth inhibition at 20 mg/kg, iv administered once every 2 days for 2 weeks in presence of SGLT inhibitor by dissecting microscopic analysis relative to control; type: functional, Colorectal cancer cell; design: scale not given: the % may be the effect or the level left
[23] = Toxicity in AOM/DSS-induced orthotopic CRC BALB/c mouse model assessed as lesions in liver at 20 to 40 mg/kg, iv administered once every 2 days for 2 weeks by H&E staining based analysis; type: organism-based; details: in vivo, 336 h, dose 20-40 mg/kg
[24] = Drug uptake in human COLO 205 cells assessed as drug internalization in presence of 4.5 g/L glucose by fluorescence based assay; type: ADME, cell-based
[25] = Antitumor activity against AOM/DSS-induced orthotopic CRC BALB/c mouse model assessed as tumor growth inhibition at 40 mg/kg, iv administered once every 2 days for 2 weeks in presence of SGLT inhibitor by dissecting microscopic analysis relative to control; type: functional, Colorectal cancer cell; design: scale not given: the % may be the effect or the level left
[26] = Toxicity in AOM/DSS-induced orthotopic CRC BALB/c mouse model assessed as lesions in lung at 20 to 40 mg/kg, iv administered once every 2 days for 2 weeks by H&E staining based analysis; type: organism-based; details: in vivo, 336 h, dose 20-40 mg/kg
[27] = Toxicity in AOM/DSS-induced orthotopic CRC BALB/c mouse model assessed as lesions in spleen at 20 to 40 mg/kg, iv administered once every 2 days for 2 weeks by H&E staining based analysis; type: organism-based; details: in vivo, 336 h, dose 20-40 mg/kg
[28] = Toxicity in AOM/DSS-induced orthotopic CRC BALB/c mouse model assessed as lesions in kidney at 20 to 40 mg/kg, iv administered once every 2 days for 2 weeks by H&E staining based analysis; type: organism-based; details: in vivo, 336 h, dose 20-40 mg/kg
[29] = Biodistribution in colorectal tumor site of BALB/c mouse at 20 mg/kg, ip measured after 4 hrs by UHPLC-MS/MS analysis; type: ADME, organism-based, Neoplasm; details: in vivo
[30] = Prodrug conversion in liver of BALB/c mouse assessed as SN38 release at 20 mg/kg, ip measured after 4 hrs by UHPLC-MS/MS analysis; type: ADME, organism-based; details: in vivo
[31] = Prodrug conversion in kidney of BALB/c mouse assessed as SN38 release at 20 mg/kg, ip measured after 4 hrs by UHPLC-MS/MS analysis; type: ADME, organism-based; details: in vivo
[32] = Drug uptake in plasma of BALB/c mouse at 20 mg/kg, ip measured after 3 hrs by UHPLC-MS/MS analysis; type: ADME, organism-based; details: in vivo
[33] = Prodrug conversion in heart of BALB/c mouse assessed as SN38 release at 20 mg/kg, ip measured after 4 hrs by UHPLC-MS/MS analysis; type: ADME, organism-based; details: in vivo
[34] = Prodrug conversion in tumor of BALB/c mouse assessed as SN38 release at 20 mg/kg, ip measured after 4 hrs by UHPLC-MS/MS analysis; type: ADME, organism-based, Neoplasm; details: in vivo
[35] = Prodrug conversion in spleen of BALB/c mouse assessed as SN38 release at 20 mg/kg, ip measured after 4 hrs by UHPLC-MS/MS analysis; type: ADME, organism-based; details: in vivo
[36] = Prodrug conversion in intestine of BALB/c mouse assessed as SN38 release at 20 mg/kg, ip measured after 4 hrs by UHPLC-MS/MS analysis; type: ADME, organism-based; details: in vivo
[37] = Prodrug conversion in lung of BALB/c mouse assessed as SN38 release at 20 mg/kg, ip measured after 4 hrs by UHPLC-MS/MS analysis; type: ADME, organism-based; details: in vivo
[38] = Prodrug conversion in stomach of BALB/c mouse assessed as SN38 release at 20 mg/kg, ip measured after 4 hrs by UHPLC-MS/MS analysis; type: ADME, organism-based; details: in vivo
Colorectal cancer cell = assay: Antitumor activity against AOM/DSS-induced orthotopic CRC BALB/c mouse model assessed as reduction in tumor area at 20 mg/kg, ip administered every other day for 2 weeks by dissecting microscopic analysis; type: functional, organism-based
[39] = Prodrug conversion in brain of BALB/c mouse assessed as SN38 release at 20 mg/kg, ip measured after 4 hrs by UHPLC-MS/MS analysis; type: ADME, organism-based; details: in vivo
[40] = Biodistribution in gastrointestinal tract of BALB/c mouse at 20 mg/kg, ip measured after 4 hrs by UHPLC-MS/MS analysis; type: ADME, organism-based; details: in vivo
[41] = Toxicity in AOM/DSS-induced orthotopic CRC BALB/c mouse model assessed as body weight loss at 20 mg/kg, ip administered every other day for 2 weeks; type: organism-based; details: in vivo, 336 h

SMILES: O=C(CCc1ccc(O)cc1)c1c(O)cc(OCCOCCOCCS)cc1O
- Activity [1]: Non-Toxic
- Activity [2]: 35%
- Activity [3]: Non-Toxic
- IC50 (HCT-116 [4]): 56.5 nM
- IC50 (HT-29 [5]): 360 nM
- Activity [6]: 55%
- IC50 (COLO 205 [7]): 150 nM
- IC50 (COLO 205 [8]): > 100000 nM
- Activity [9]: Non-Toxic
- Activity [10]: Non-Toxic
- Activity [11]: Non-Toxic
- Activity [12]: Non-Toxic
- Activity [13]: Non-Toxic
- Activity [14]: Non-Toxic

SMILES: CCc1c2c(nc3ccc(OC(=O)OCCSSCCOCCOCCOc4cc(O)c(C(=O)CCc5ccc(O)cc5)c(O[C@@H]5O[C@H](CO)[C@@H](O)[C@H](O)[C@H]5O)c4)cc13)-c1cc3c(c(=O)n1C2)COC(=O)[C@]3(O)CC
- IC50 (HT-29 [15]): 510 nM
- IC50 (COLO 205 [8]): 640 nM
- IC50 (HCT-116 [16]): 42.3 nM
- half-life [17]: 20 min

SMILES: CCc1c2c(nc3ccc(OCc4ccc(NC(=O)[C@H](CCCNC(N)=O)NC(=O)[C@@H](NC(=O)CCCCN5C(=O)CC(SCCOCCOCCOc6cc(O)c(C(=O)CCc7ccc(O)cc7)c(O[C@@H]7O[C@H](CO)[C@@H](O)[C@H](O)[C@H]7O)c6)C5=O)C(C)C)cc4)cc13)-c1cc3c(c(=O)n1C2)COC(=O)[C@]3(O)CC (some centres not stated)
- Stability [18]: Stable
- Activity [19]: Non-Toxic
- IC50 (HT-29 [15]): > 100000 nM
- Activity [20]: Non-Toxic
- Activity [21]: Non-Toxic
- Activity [22]: 45%
- IC50 (COLO 205 [8]): 15400 nM
- IC50 (HCT-116 [16]): 3250 nM
- Activity [23]: Non-Toxic
- half-life [17]: 2160 min
- Drug uptake [24]: Active
- Activity [25]: 55%
- Activity [26]: Non-Toxic
- Activity [27]: Non-Toxic
- Activity [28]: Non-Toxic

SMILES: CCc1c2c(nc3ccc(OC(=O)OCCSSCCOCCOCCOc4cc(O)c(C(=O)CCc5ccc(O)cc5)c(O)c4)cc13)-c1cc3c(c(=O)n1C2)COC(=O)[C@]3(O)CC
- Drug uptake [29]: Active
- Drug metabolism [30]: Metabolite_Detected
- Drug metabolism [31]: Metabolite_Detected
- Drug uptake [32]: Not Active
- Drug metabolism [33]: Metabolite_Detected
- Drug metabolism [34]: Metabolite_Detected
- Drug metabolism [35]: Metabolite_Detected
- IC50 (HT-29 [15]): 310 nM
- Drug metabolism [36]: Metabolite_Detected
- Drug metabolism [37]: Metabolite_Detected
- IC50 (COLO 205 [8]): 570 nM
- IC50 (HCT-116 [16]): 34.1 nM
- Drug metabolism [38]: Metabolite_Detected
- Activity (Colorectal cancer cell): Active
- half-life [17]: 50 min
- Drug uptake [24]: Active
- Drug metabolism [39]: Metabolite_Detected
- Drug uptake [40]: Active
- Activity [41]: Non-Toxic
